{"source": "patent US8692014B2", "about": "“Acid addition salts of 5-aminolevulinic acid or its derivatives” (Photocure ASA, priority 2004, dated 2014)", "key": {"[1]": {"assay": "Hygroscopicity: water uptake and onset of deliquescence in closed chamber at 75-84% relative humidity", "format": "physicochemical", "details": "75-84% relative humidity over saturated ammonium sulfate solution, ca. 25° C.; for appearance / deliquescence during the test period / water uptake as monitored by weight: in words", "description": "(§1) Samples of methyl 5-amino-4-oxopentanoate hydrochloride, methanesulfonate, and toluenesulfonate were weighed and kept in 30 ml plastic cups in a closed chamber at 75-84% relative humidity over saturated ammonium sulfate solution at ambient temperature (ca. 25° C.). The samples were then weighed after different intervals of time to monitor water uptake. The appearance of the samples was also checked at the same time to determine the onset of deliquescence.\nas §1, with “5-amino-4-oxopentanoic acid hydrochloride” for “methyl 5-amino-4-oxopentanoate hydrochloride, methanesulfonate,”, “75-84” for “75-84%”\nas §1, with “hexyl” for “methyl”, “hydrochloride” for “hydrochloride, methanesulfonate,”"}, "mouse skin [2]": {"system": "mouse skin", "assay": "Skin fluorescence after topical application of cream formulations to nude mice (emission 550-750 nm)", "format": "in vivo, Female Balb/c athymic nude mice", "details": "in words; for initial fluorescence build-up compared with the hydrochloride salt / occurrence of maximum fluorescence compared with the hydrochloride salt / skin fluorescence compared to the hydrochloride salt: topical cream 0.5 mmol/10 g; for initial fluorescence build-up compared with the hydrochloride salt / occurrence of maximum fluorescence compared with the hydrochloride salt: FIG. 2; for skin fluorescence compared to the hydrochloride salt: FIG. 3 and FIG. 4", "description": "Different salts of 5-amino-4-oxopentanoic acid or of its esters were formulated in Unguentum Merck for dermal studies. All cream formulations contained 0.5 mmol of substance per 10 g cream to ensure the same molar concentration (assuming that 10 g cream equals 10 ml, the approx. molar concentration is 0.5 mmol/10 ml or 50 mM). Preparation of the formulations is outlined in Table 1 below.\n(§2) Method: Female Balb/c athymic nude mice, weighing about 22 g, obtained from the Department of Laboratory Animals, The Norwegian Radium Hospital, Oslo, Norway, were used in the study. Each group consisted of three mice.\n(§3) Each mouse received 0.05-0.1 g of formulation (see Example 31) topically applied at the right flank of the body, evenly distributed and covered with a dressing (Opsite Flexigrid; Smith and Nephew Medical Ltd., Hull, England).\n(§4) The fiber point measuring device used consisted of a bundle of optical fibers connected to a spectrofluorimeter which produced the excitation light of 407 nm. The excitation light, which is capable of penetrating 0.1-0.5 mm into the tissue, was led through half of the fibers to the mouse skin. The resulting emission fluorescence spectrum (550-750) nm was collected and led through the remaining fibers into a photomultiplier for quantification. The fluorescence spectrum from the skin was measured at 0, 2, 4, 6, 8, 10, 12 and 24 hours after administration and plotted against time."}, "mouse skin [3]": {"system": "mouse skin", "assay": "Skin fluorescence after topical application of cream formulations to nude mice, measured at 636 nm", "format": "in vivo, Female Balb/c athymic nude mice", "details": "topical cream 0.5 mmol/10 g, fluorescence at 636 nm, in words; for induction of skin fluorescence compared with the hydrochloride salt: FIG. 6 and FIG. 7; for occurrence of maximum fluorescence compared with the hydrochloride salt: FIG. 7", "text": "as §2, §3, §4\nDifferent salts of 5-amino-4-oxopentanoic acid or of its benzylester were formulated in Unguentum Merck for dermal studies. All cream formulations contained 0.5 mmol substance per 10 g cream to assure the same molar concentration. Corrections were made in the case of the 2:1 salts so that the molar concentration of 5-amino-4-oxopentanoic acid or the corresponding ester corresponded to 0.5 mmol/10 g cream. Assuming that 10 g cream equals 10 ml, the approx. molar concentration is 0.5 mmol/10 ml=50 mM. Preparation of the formulations is outlined in Table 2 below.\nPreparation of the Formulations is Described in Example 36. The same experimental system as in Example 32 was used, except that the skin fluorescence was measured at 636 nm rather than at 550-750 nm.\nPreparation of the Formulations is Described in Example 36. The same experimental system as in Example 37 was used."}, "[4]": {"assay": "Hygroscopicity: 2 mg samples kept at ambient temperature at ambient or 100 humidity", "format": "physicochemical", "details": "for deliquescence on storage: ambient temperature and 100 humidity; for change of sample on storage: ambient temperature and ambient humidity for 4 days", "description": "Samples (2 mg) of the hydrochloride, methanesulfonate, and toluenesulfonate of hexyl 5-amino-4-oxopentanoate were kept at ambient temperature and ambient humidity for 4 days.\nSamples (2 mg) of the hydrochloride, methanesulfonate, and toluenesulfonate of hexyl 5-amino-4-oxopentanoate were kept at ambient temperature and 100 humidity."}}}
{"compound": "5-Amino-4-oxopentanoic acid toluenesulfonate", "values": [{"measurement": "appearance / deliquescence during the test period", "setting": "[1]", "result": "did not change appearance during the test period"}, {"measurement": "water uptake as monitored by weight", "setting": "[1]", "result": "did not pick up water"}]}
{"compound": "Cl.NCC(=O)CCC(=O)O", "note": "[5-amino-4-oxopentanoic acid hydrochloride, reference compound]", "values": [{"measurement": "onset of deliquescence", "setting": "[1]", "result": 22.5, "unit": "h"}, {"measurement": "water uptake as monitored by weight", "setting": "[1]", "result": "took up water to a considerable extent"}]}
{"compound": "CS(=O)(=O)O.NCC(=O)CCC(=O)O", "note": "[5-amino-4-oxopentanoic acid methanesulfonate]", "values": [{"measurement": "maximal skin fluorescence compared with the HCl salt", "setting": "mouse skin [2]; topical cream 0.5 mmol/10 g (Unguentum Merck), excitation 407 nm, emission 550-750 nm, 0-24 h, FIG. 1", "result": "somewhat higher maximal skin fluorescence than the HCl salt"}]}
{"compound": "CS(=O)(=O)O.NCC(=O)CCC(=O)OCc1ccccc1", "note": "[Benzyl 5-amino-4-oxopentanoate methanesulfonate]", "values": [{"measurement": "initial fluorescence build-up compared with the hydrochloride salt", "setting": "mouse skin [2]", "result": "occurred faster"}, {"measurement": "occurrence of maximum fluorescence compared with the hydrochloride salt", "setting": "mouse skin [2]", "result": "occurred faster"}]}
{"compound": "COC(=O)CCC(=O)CN.CS(=O)(=O)O", "note": "[Methyl 5-amino-4-oxopentanoate methanesulfonate]", "values": [{"measurement": "skin fluorescence compared to the hydrochloride salt", "setting": "mouse skin [2]; emission 550-750 nm", "result": "a considerable increase in skin fluorescence as compared to the hydrochloride salt"}, {"measurement": "onset of deliquescence", "setting": "[1]", "result": 22, "unit": "h"}, {"measurement": "water uptake as monitored by weight", "setting": "[1]", "result": "took up water to a considerable extent"}]}
{"compound": "NCC(=O)CCC(=O)OCc1ccccc1.O=[N+]([O-])O", "note": "[benzyl 5-amino-4-oxopentanoate nitrate, Benzyl 5-amino-4-oxopentanoate nitrate]", "values": [{"measurement": "induction of skin fluorescence compared with the hydrochloride salt", "setting": "mouse skin [3]", "result": "more effective in inducing skin fluorescence than the hydrochloride salt"}]}
{"compound": "NCC(=O)CCC(=O)OCc1ccccc1.O=P(O)(O)O", "note": "[benzyl 5-amino-4-oxopentanoate phosphate, Benzyl 5-amino-4-oxopentanoate phosphate]", "values": [{"measurement": "induction of skin fluorescence compared with the hydrochloride salt", "setting": "mouse skin [3]", "result": "poorer inducers of skin fluorescence than the corresponding hydrochloride salt"}, {"measurement": "occurrence of maximum fluorescence compared with the hydrochloride salt", "setting": "mouse skin [3]", "result": "occurred earlier"}]}
{"compound": "CCCCCCOC(=O)CCC(=O)CN.Cl", "note": "[hexyl 5-amino-4-oxopentanoate hydrochloride, reference compound]", "values": [{"measurement": "onset of deliquescence", "setting": "[1]", "result": 5.0, "unit": "h"}, {"measurement": "water uptake as monitored by weight", "setting": "[1]", "result": "did not pick up water to a considerable extent"}, {"measurement": "deliquescence on storage", "setting": "[4]", "result": "deliquesced after standing overnight"}, {"measurement": "change of sample on storage", "setting": "[4]", "result": "No observable change"}]}
{"compound": "CCCCCCOC(=O)CCC(=O)CN.CS(=O)(=O)O", "note": "[hexyl 5-amino-4-oxopentanoate methanesulfonate]", "values": [{"measurement": "skin fluorescence compared to the hydrochloride salt", "setting": "mouse skin [2]; emission 550-750 nm", "result": "approx. the same skin fluorescence as the hydrochloride salt"}, {"measurement": "appearance / deliquescence during the test period", "setting": "[1]", "result": "deliquescence did not occur"}, {"measurement": "water uptake as monitored by weight", "setting": "[1]", "result": "took up water to some extent"}, {"measurement": "deliquescence on storage", "setting": "[4]", "result": "deliquesced after two days"}, {"measurement": "change of sample on storage", "setting": "[4]", "result": "No observable change"}]}
{"compound": "COC(=O)CCC(=O)CN.Cl", "note": "[methyl 5-amino-4-oxopentanoate hydrochloride, reference compound]", "values": [{"measurement": "onset of deliquescence", "setting": "[1]", "result": 22, "unit": "h"}, {"measurement": "water uptake as monitored by weight", "setting": "[1]", "result": "took up water to a considerable extent"}]}
{"compound": "Benzyl 5-amino-4-oxopentanoate sulfate (2:1)", "values": [{"measurement": "induction of skin fluorescence compared with the hydrochloride salt", "setting": "mouse skin [3]", "result": "poorer inducers of skin fluorescence than the corresponding hydrochloride salt"}, {"measurement": "occurrence of maximum fluorescence compared with the hydrochloride salt", "setting": "mouse skin [3]", "result": "occurred earlier"}]}
{"compound": "Benzyl 5-amino-4-oxopentanoate toluenesulfonate", "values": [{"measurement": "initial fluorescence build-up compared with the hydrochloride salt", "setting": "mouse skin [2]", "result": "occurred faster"}, {"measurement": "occurrence of maximum fluorescence compared with the hydrochloride salt", "setting": "mouse skin [2]", "result": "occurred faster"}]}
{"compound": "Methyl 5-amino-4-oxopentanoate toluenesulfonate", "values": [{"measurement": "appearance / deliquescence during the test period", "setting": "[1]", "result": "did not change appearance during the test period"}, {"measurement": "water uptake as monitored by weight", "setting": "[1]", "result": "did not pick up water"}]}
{"compound": "hexyl 5-amino-4-oxopentanoate toluenesulfonate", "values": [{"measurement": "skin fluorescence compared to the hydrochloride salt", "setting": "mouse skin [2]; emission 550-750 nm", "result": "approx. the same skin fluorescence as the hydrochloride salt"}, {"measurement": "appearance / deliquescence during the test period", "setting": "[1]", "result": "did not change appearance during the test period"}, {"measurement": "water uptake as monitored by weight", "setting": "[1]", "result": "did not pick up water"}, {"measurement": "deliquescence on storage", "setting": "[4]", "result": "deliquesced after four days"}, {"measurement": "change of sample on storage", "setting": "[4]", "result": "No observable change"}]}
